Values of other authors as cited in article PMC9916978, “Enantioselective Human Serum Albumin Binding of Apremilast: Liquid Chromatographic, Fluorescence and Molecular Docking Study” (International Journal of Molecular Sciences, 2023).

Assays:
Parameters in all cases: method as in earlier work
Details in all cases: 0.25 to 2.5 μg/mL; cited from earlier work
rabbit plasma = system: rabbit plasma
human plasma = system: human plasma
monkey plasma = system: monkey plasma
mouse plasma = system: mouse plasma
rat plasma = system: rat plasma

CCOc1cc([C@@H](CS(C)(=O)=O)N2C(=O)c3cccc(NC(C)=O)c3C2=O)ccc1OC [APR, apremilast]
overall mean percent bound (rabbit plasma): 80.9%
overall mean percent bound (human plasma): 68.3%
overall mean percent bound (monkey plasma): 84.3%
overall mean percent bound (mouse plasma): 88.6%
overall mean percent bound (rat plasma): 90.6%
